Laboratory results published in paper PMC6093661, “Vitamin E hydroquinone is an endogenous regulator of ferroptosis via redox control of 15-lipoxygenase” (PLoS ONE, 2018).
“And” between values parts separate entries of the source, which are not always exact repeats. Equal values may be shown once. Read-outs that look alike come from different tables or passages of the source.

Legend:
[1] = Radical-trapping antioxidant (RTA) activity assay in DOPC liposomes; conditions: for Radical Trapping Assay AUC (Rel. Control): 50 μM compound, 2 mol% in DOPC liposomes, BODIPY 581/591 C11 quenching, liposome-only control = 1
[2] = test system: Mouse striatal Q7 cells (STHdhQ7/Q7); test: RSL3 ferroptosis cell rescue (cellular survival assay, CellTiter-Glo)
[3] = test system: 15-HETE release from Q7 cells; test: Targeted arachidonate metabolite release cellular assay (RSL3-treated Q7 cells); format: cell-based, mouse
Experimental: Ferroptosis was initiated by RSL3 (2 μM final concentration) in Q7 cells as described above. The protective activity of co-treated compounds was assessed also as described above. Four to five hours after RSL3 treatment, the conditioned medium was collected into 1.2-mL cluster tubes containing ice-cold acetonitrile at a ratio of 1:2. Tubes were snap frozen on dry ice and stored at -80°C.
Prior to analysis, samples were thawed on wet ice and then vortexed briefly. Samples were centrifuged at 4000 rpm for 15min at 4°C. Supernatant (40 μL) was transferred to a 96-well injection plate and 10 μL of both internal standard and HPLC grade water were added. A Shimadzu Nexera MP system coupled to a Sciex 6500 Qtrap and configured for micro-flow was used to analyze all samples. Samples were maintained at 4°C in the Nexera MP autosampler for the duration of the analytical run.
A Thermo Gold-C8 column (1.9 μm, 1.0 x 100 mm) operated at 45°C was used for chromatographic separation. The total run time of the liquid chromatography method was 10 min. Mobile phase A consisted of water with 0.1% formic acid. Mobile phase B was composed of 0.1% formic acid in 3:1 acetonitrile:isopropyl alcohol. Gradient elution was employed, with mobile phase B being ramped from 5% at 0min, to 50% at 2 min, and finally 98% at 7.5 min. Electrospray conditions for the μLC-ESI-MS/MS method were optimized for a flow rate of 125 μL/min and were as follows: Ion spray voltage was set to -4500 V, temperature of 250°C, curtain gas of 20, CAD gas of 10, and ion source gas 1 and 2 of 20 and 40 psi, respectively. Analyzer parameters were optimized for each compound using a combination of manual tuning and compound optimization. The following MRM transitions were used to quantify concentrations of 15-HETE, 12-HETE and Arachidonic Acid (AA). 15-HETE: 319→219; 12-HETE: 319→179; AA: 303→259.

[4] = target: T1, Rabbit 15-lipoxygenase (rLOX15) (Oryctolagus cuniculus, UniProt P12530); test: Lipoxygenase enzyme inhibition assay; format: biochemical; conditions: for inhibition of rabbit 15-LO enzyme activity: arachidonic acid as substrate, up to 100 μM; for IC50 / activity at 100 µM: rabbit 15-LO; for IC50: 50 μM arachidonic acid substrate; for activity at 100 µM: compound 100 μM, read-out: 15-Lipoxygenase Enzyme Assay % activity at 100 μM
T1 construct: purchased Enzo Life Sciences, Inc. BML-PL015
T1 sequence (P12530 1-663): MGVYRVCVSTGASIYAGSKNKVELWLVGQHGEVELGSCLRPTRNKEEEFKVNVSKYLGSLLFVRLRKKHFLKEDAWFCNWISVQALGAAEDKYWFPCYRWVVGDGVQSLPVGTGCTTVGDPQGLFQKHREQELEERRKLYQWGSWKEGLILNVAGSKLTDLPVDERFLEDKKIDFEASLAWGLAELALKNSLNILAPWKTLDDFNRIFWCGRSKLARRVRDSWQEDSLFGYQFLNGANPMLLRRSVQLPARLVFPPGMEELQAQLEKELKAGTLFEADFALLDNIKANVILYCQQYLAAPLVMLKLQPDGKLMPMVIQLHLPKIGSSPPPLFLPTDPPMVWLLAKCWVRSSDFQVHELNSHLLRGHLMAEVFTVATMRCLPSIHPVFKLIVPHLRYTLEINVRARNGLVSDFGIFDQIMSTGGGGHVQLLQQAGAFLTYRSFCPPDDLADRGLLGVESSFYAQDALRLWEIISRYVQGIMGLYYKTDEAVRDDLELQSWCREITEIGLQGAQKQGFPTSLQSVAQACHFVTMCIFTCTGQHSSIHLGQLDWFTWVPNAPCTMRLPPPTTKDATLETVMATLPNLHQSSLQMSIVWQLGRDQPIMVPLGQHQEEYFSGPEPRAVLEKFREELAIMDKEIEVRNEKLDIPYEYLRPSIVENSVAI
Experimental: Rabbit 15-lipoxygenase (rLOX15, part number BML-PL015, lot number 3-P9009a) was obtained from Enzo Life Sciences, Inc. Sodium cholate (part number C6445, lot number 094K0209) was obtained from Sigma-Aldrich.
Stock solutions of test compounds were prepared in DMSO and then diluted to final assay concentrations in cholate mix such that final cholate and DMSO concentrations were maintained at 0.2%.

[5] = ORAC (oxygen radical absorbance capacity) assay; conditions: average of 25 and 12.5 μM compound; mean, SEM, n = 6
Experimental: ORAC assay kits were purchased from Cell Biolabs. Assays were performed per the manufacturer’s instructions for lipophilic samples with minor modifications. DMSO stock solutions of compounds were diluted in an anaerobic glovebox to final concentrations of 25 and 12.5 μM in triplicate. A standard curve of Trolox® between 0–100 μM in triplicate per concentration was also generated on each assay plate. Diluted compounds and standards were removed from the glovebox and reactions initiated by addition of aerobic fluorescein reagent and radical initiator. Fluorescein fluorescence was monitored at excitation wavelength of 480 nm and emission wavelength of 520 nm every minute for one hour. AUC analysis was performed as described in the kit protocol. The “Trolox equivalents” at each concentration of test compound were calculated and the average Trolox equivalents at the two compound concentrations are presented. The errors were determined by propagating errors from the SEMs of the triplicate determinations to the averages across the two triplicate determinations.

Q7 cells [6] = test: Cellular lipid oxidation assay (BODIPY 581/591 C11, RSL3-treated Q7 cells); format: cell-based, mouse; conditions: RSL3 2 μM, 6-point titration, time-lapse microscopy
Experimental: Ferroptosis was induced by RSL3 (2 μM final concentration) in Q7 cells as described above. The protective activity of co-treated compounds was assessed also as described above. The rate of cellular lipid oxidation after GPX4 inhibition was assessed by monitoring the time-dependent changes in green fluorescence of cells pre-labeled with BODIPY™ 581/591 C11 dye (5 μM, 30-minute labeling period; Thermo Fisher/Invitrogen) using the IncuCyte S3 live-cell imaging apparatus (Sartorius) using a 10x objective. Cells (three images per field; at least three replicate wells per condition) were imaged once hourly for up to 18 hours after compound and RSL3 addition. Quantification of cell images was performed using the IncuCyte Zoom software using the Basic Analyzer tool which utilized an algorithm that calculated the total green-positive area per well where “green-positive” was defined as 1.45 times the local background-subtracted fluorescent signal. After a 2-3-hour lag period post-RSL3 treatment, the cellular green fluorescence signal began increasing. The rate of change in total green-positive area per well from 3–9 hours post-compound treatment was calculated, then expressed relative to that observed in the RSL3-only control treatment group, which was defined as 100%.

Q7 cells [7] = test: Intracellular quantification of αT, αTQ and αTHQ in Q7 cells (LC-MS/MS, succinate capping); conditions: αTQ 10 μM, 24 h
Q7 cells [8] = conditions: mouse
Q7 cells [9] = test: Cellular quantification of αTCC in Q7 cells (LC-MS/MS, succinate capping); format: in vitro ADME, mouse; conditions: 6 technical replicates in each of 4 experiments
Experimental: Due to poor ionization of αTCC, the succinate capping method was used for quantification of the succinate ester derivative formed by cell lysis with 100 mg/mL succinic anhydride in 95:5 (acetonitrile:triethylamine).
Q7 cells were cultured in standard culture medium for 18 hours prior to compound addition. After the specified treatment time, the culture medium was removed and adherent cells were washed with PBS. The wash was removed and adherent cells were harvested by adding 1 mL of 100 mg/mL succinic anhydride in 95:5 (acetonitrile:triethylamine) followed by immediate cell scrapping. After cell scrapping, samples were transferred to a 1.5 mL Eppendorf tube, vortexed for 15 seconds, and kept on wet ice until all samples were harvested. […]
Samples were analyzed using a developed method on a Shimadzu 30AD using micro-flow with a Shimadzu SIL-30AC autosampler, and coupled to an AB Sciex 6500+ QTRAP mass spectrometer. […] Analyzer parameters were optimized for each compound using a combination of manual tuning and compound optimization. αTCC was measured as αTCC-succinate. […]
A Phenomenex Kinetex C18 (2.1 x 50 mm, 1.3 µm) column using a reverse phase gradient mobile phase method was used for chromatographic separation. […] Data were analyzed using Sciex Analyst Chromatography software, version 1.6.2 and Sciex MultiQuant software. […]

[10] = Mus musculus, 18 h, read-out: RSL3 Ferroptosis Cell Assay Average EC50, Q7 cells, RSL3 2 μM, 18 h co-treatment, CellTiter-Glo 2.0

Compound	Radical Trapping Assay AUC (Rel. Control) [1]	EC50 [2, 10] [nM]	fold more potent than αT in preventing ferroptotic cell death ([2]; Q7 cells, RSL3, EC50 ratio vs αT) [fold]	EC50 ([2]; read-out: RSL3 Ferroptosis Cell Assay Average EC50, Q7 cells, RSL3 2 μM, 18 h co-treatment, CellTiter-Glo 2.0) [nM]	IC50 ([3]; Mus musculus, RSL3 2 μM, conditioned medium 4-5 h, read-out: IC50 for RSL3-induced cellular release of 15-HETE) [nM]	effect on 12-HETE levels ([3]; RSL3, compound 5 μM)	effect on cellular or released AA levels ([3]; RSL3, compound 5 μM)	effect on RSL3-dependent induction of cellular and released 15-HETE ([3]; compound 5 μM)	inhibition of rabbit 15-LO enzyme activity [4]	IC50 [4] [nM]	activity at 100 µM [4] [%]	ORAC Antioxidant Activity Assay Trolox Equiv. [5]	effect on RSL3-induced lipid oxidation (BODIPY 581/591 C11 oxidation) (Q7 cells [6])	cellular exposure of αT after αTQ supplementation (back-conversion) (Q7 cells [7])	cellular αTQ exposure after αTQ supplementation (Q7 cells [7])	fold increase in cellular αTHQ after αTQ supplementation (Q7 cells [8]) [fold]	fold increase in cellular αTQ after αTQ supplementation (Q7 cells [8]) [fold]	RTA AUC fold greater than αTQ and αTHQ ([1]; DOPC liposomes, AUC relative to liposome only control)	rescue at 30 μM ([2]; Q7 cells, RSL3 2 μM, 30 μM highest concentration tested, mean ± SD, N = 7) [%]	cellular exposure of αTCC (Q7 cells [9]) [µM]
CC1=C(C)C(=O)C(CC[C@](C)(O)CCC[C@H](C)CCC[C@H](C)CCCC(C)C)=C(C)C1=O [αTQ, α-tocopherol quinone]	1.217	233	22	230 ± 100	600	not altered	no effect	inhibited	did not	> 100000	75	0.044 Trolox Equiv.	prevented	unaffected	over 250 μM	> 600	> 300			
Cc1c(C)c2c(c(C)c1O)CCC(C)(CCCC(C)CCCC(C)CCCC(C)C)C2 (centres unmarked) [αTCC, 1,3,4,6-Tetramethyl-6-(4,8,12-trimethyltridecyl)-5,6,7,8-tetrahydronaphthalen-2-ol]	4.706	> 30000							did not	> 100000	77	0.075 Trolox Equiv. and 0.075 ± 0.008 Trolox Equiv.						2.5–4 fold	42 ± 21	> 50
